Experimental data: ChEMBL document CHEMBL3271949, “Drugs derived from cannabinoids. 3. Sulfur analogs, thiopyranobenzopyrans and thienobenzopyrans” (J Med Chem, 1976)
Activity calls are given as the source filed them.

What was measured:
Canis familiaris [1] = experiment: Toxicity in beagle-like dog assessed as reduced reactivity with ataxia observed for 24 hrs at 1 mg/kg, po single dose; format: organism-based, Canis lupus familiaris; parameters: dose 1 mg/kg, route oral; details: in vivo
Mus musculus [2] = experiment: Antinociceptive activity in po dosed mouse assessed as inhibition of acetic acid-induced writhing administered 30 mins before acetic acid challenge measured after 5 to 20 mins; format: functional
Rattus norvegicus [3] = experiment: Spontaneous motor activity in Long-Evans rat at 5 mg/kg measured up to 2 hrs relative to control; format: functional
[4] = Toxicity in po dosed mouse; format: organism-based; details: in vivo
Mus musculus [5] = experiment: Antidepressant activity in mouse assessed as potentiation of (+/-)-dopa-induced motor responses at 5 mg/kg, po administered 4 hrs before dopa challenge; format: functional, organism-based; parameters: dose 5 mg/kg
Mus musculus [6] = experiment: Tranquilizer activity in albino BALB/cJ mouse assessed as reduction in footshock-induced fighting behavior at 10 mg/kg, po after 90 mins; format: functional; parameters: scale not given: the % may be the effect or the level left
Mus musculus [7] = species on record: Mus musculus; experiment: Analgetic activity in mouse by hot-plate test; format: functional
Canis familiaris [8] = experiment: Toxicity in beagle-like dog assessed as reduced reactivity with ataxia observed for 24 hrs at 10 mg/kg, po single dose; format: organism-based, Canis lupus familiaris; parameters: dose 10 mg/kg, route oral; details: in vivo
Rattus norvegicus [9] = experiment: Antihypertensive activity in spontaneous hypertensive rat assessed as reduction of blood pressure at 10 mg/kg, po after 24 hrs; format: functional; parameters: scale not given: the % may be the effect or the level left
Felis catus = experiment: Sedative-hypnotic activity in po dosed cat assessed as rapid eye movement sleep; format: functional, organism-based
Rattus norvegicus [10] = experiment: Antihypertensive activity in spontaneous hypertensive rat assessed as reduction of blood pressure at 10 mg/kg, po after 4 hrs; format: functional; parameters: scale not given: the % may be the effect or the level left
Rattus norvegicus [11] = experiment: Antihypertensive activity in spontaneous hypertensive rat assessed as reduction of blood pressure at 10 mg/kg, po after 48 hrs; format: functional; parameters: scale not given: the % may be the effect or the level left
Rattus norvegicus [12] = experiment: Analgetic activity in po dosed Sprague-Dawley rat assessed as pain threshold after 15 to 90 mins by tail-flick test; format: functional
Mus musculus [13] = experiment: Tranquilizer activity in albino BALB/cJ mouse assessed as reduction in footshock-induced fighting behavior at 5 mg/kg, po after 90 mins; format: functional; parameters: scale not given: the % may be the effect or the level left
Canis familiaris [14] = experiment: Toxicity in beagle-like dog assessed as reduced reactivity with ataxia observed for 24 hrs at 0.1 mg/kg, po single dose; format: organism-based, Canis lupus familiaris; parameters: dose 0.1 mg/kg, route oral; details: in vivo
Rattus norvegicus [15] = experiment: Spontaneous motor activity in Long-Evans rat at 10 mg/kg measured up to 2 hrs relative to control; format: functional

| Structure (SMILES) | Activity (Canis familiaris [1]) | ED50 (Mus musculus [2]) [mg/kg] | Activity (Rattus norvegicus [3]) [%] | LD50 [4] [mg/kg] | Activity (Mus musculus [5]) | Activity (Mus musculus [6]) [%] | ED50 (Mus musculus [7]) [mg/kg] | Activity (Canis familiaris [8]) | Activity (Rattus norvegicus [9]) [%] | Activity (Felis catus) | Activity (Rattus norvegicus [10]) [%] | Activity (Rattus norvegicus [11]) [%] | ED50 (Rattus norvegicus [12]) [mg/kg] | Activity (Mus musculus [13]) [%] | Activity (Canis familiaris [14]) | Activity (Rattus norvegicus [15]) [%] |
| --- | --- | --- | --- | --- | --- | --- | --- | --- | --- | --- | --- | --- | --- | --- | --- | --- |
| CCCCCC(C)C(C)c1cc(OC(=O)CCCN2CCCCC2)c2c(c1)OC(C)(C)C1=C2CCS1.Cl (stereo unspecified) | Non-toxic | 24 | 1 | > 300 | Active | 33 |  |  |  |  |  |  |  |  |  |  |
| CCCCCC(C)C(C)c1cc(O)c2c(c1)OC(C)(C)C1=C2CSC1 (stereo unspecified) |  | 51.7 | 1 | > 300 | Active | 33 | > 120 | Toxic |  |  |  |  |  |  |  |  |
| CCCCCC(C)C(C)c1cc(O)c2c(c1)OC(C)(C)c1sccc1-2 (stereo unspecified) |  | > 10 | 1 | > 300 | Active | 1 |  |  |  |  |  |  |  |  |  |  |
| CCCCCC(C)C(C)c1cc(O)c2c(c1)OC(C)(C)C1=C2CCCS1 (stereo unspecified) [TINABINOL] | Toxic | 8.6 | 1 | > 300 | Active | 1 | 5.7 |  | 28 | inactive | 15 | 19 | 2.7 |  |  |  |
| CCCCCC(C)C(C)c1cc(OC(=O)CCCN2CCOCC2)c2c(c1)OC(C)(C)C1=C2CCS1.Cl (stereo unspecified) | Non-toxic |  | 1 | > 300 | Active | 33 | > 50 |  |  |  |  |  |  | 1 |  |  |
| CCCCCC(C)C(C)c1cc(OC(=O)C(C)CCN2CCOCC2)c2c(c1)OC(C)(C)C1=C2CCCS1.Cl.O (stereo unspecified) |  | 22.6 | 1 | > 300 | Active | 66 |  |  |  | inactive |  |  |  |  |  |  |
| CCCCCC(C)C(C)c1cc(OC(=O)CCCN2CCCCC2)c2c(c1)OC(C)(C)C1=C2CCCS1.Cl (stereo unspecified) |  | 14.7 | 66 | > 300 | Active |  |  |  |  |  |  |  |  | 1 |  |  |
| CCCCCC(C)C(C)c1cc(O)c2c(c1)OC(C)(C)C1=C2CCS1 (stereo unspecified) |  | 71.8 | 1 | > 300 | Active | 33 | 12.1 |  | 2 | Active | 17 |  |  | 1 | Toxic |  |
| CCCCCC(C)C(C)c1cc(O)c2c(c1)OC(C)(C)C1=C2CCSC1 (stereo unspecified) |  | > 40 |  | > 300 | Active |  | > 40 | Toxic |  |  |  |  |  | 1 |  | 1 |
